According to patent US6342516B1, “Phenylazole compounds, process for producing the same and drugs for hyperlipemia” (Nippon Soda Co., Ltd., priority 1998, dated 2002):

Test system: cholesterol-fed hamsters
Assay: Effect on serum lipids of cholesterol-fed hamsters (serum total cholesterol and triglyceride reduction rate)
Type: in vivo
Details: cholesterol-fed Syrian hamsters, oral once a day for 5 days, dose 6.25 mg/kg
Protocol: Pharmacological Test Example 1: Effect on serum lipids of cholesterol-fed hamsters
Syrian hamsters (Std:Syrian, Male, 4 weeks old) were freely fed with chow containing 1% cholesterol and 10% coconut oil for 3 weeks ad libitum.
At the last week of feeding, each of the test compounds was dissolved or suspended in either 0.1% hydrochloric acid solution or 1% polyethylene-hydrogenated castor oil (NIKKOL HCO-60) solution and was orally administrated to hamsters once a day for 5 days. For the hamsters of the control group, only the solvent was orally administered. Then, blood was collected from the abdominal vein under the condition of anesthesia with pentobarbital at 2-4 hours after the last administration, and the serum in the blood was separated. The serum total cholesterol value and the serum triglyceride value were determined by using autobiochemical analyzer with analizing kits, and reduction rate of the serum lipids was determined according to the equation indicated below based on the analyzed values for respective hamster groups.
Serum lipids reduction rate (%)=(Amount of serum lipids of the control group−Amount of serum lipids of the group administrated with the test compound)/Amount of serum lipids of the control group×100

| Compound | Serum lipids reduction rate comparing to Control group (%), Means of 3 animals: Total cholesterol | Serum lipids reduction rate comparing to Control group (%), Means of 3 animals: Triglyceride |
| --- | --- | --- |
| O=C(Nc1ccc(-n2ccnc2)cc1)c1cccnc1 [4-26] | 22% | 48% |

Same assay, conditions: cholesterol-fed Syrian hamsters, oral once a day for 5 days, dose 12.5 mg/kg

| Compound | Serum lipids reduction rate comparing to Control group (%), Means of 3 animals: Total cholesterol | Serum lipids reduction rate comparing to Control group (%), Means of 3 animals: Triglyceride |
| --- | --- | --- |
| Cc1cc(C(=O)Nc2ccc(-n3ccnc3)cc2)[nH]n1 [4-15] | 37% | 73% |
| O=C(Nc1ccc(-n2ccnc2)cc1)c1cnccn1 [4-33] | 35% | 44% |
| Cn1c(CCC(=O)Nc2ccc(-n3ccnc3)cc2)nc2ccccc21 [4-97] | 26% | 33% |
| COc1ccc2c(c1)cc(C(=O)Nc1ccc(-n3ccnc3)cc1)n2C [4-6] | 41% | 71% |
| O=C(COc1nc2c(c(C(F)(F)F)n1)CCO2)Nc1ccc(-n2ccnc2)cc1 [4-81] | 22% | 43% |
| O=C(Nc1ccc(-n2ccnc2)cc1)c1ccccn1 [4-24] | 30% | 25% |
| Cn1c(C(=O)Nc2ccc(-n3ccnc3)cc2)cc2ccccc21 [4-4] | 23% | 32% |
| O=C(Nc1ccc(-n2ccnc2)cc1)c1cc2ccccc2[nH]1 [4-2] | 32% | 45% |
| CC(C)c1cc(C(=O)Nc2ccc(-n3ccnc3)cc2)cc(O)n1 [4-28] | 24% | 34% |
| O=C(COc1cnc2ccccc2n1)Nc1ccc(-n2ccnc2)cc1 [4-79] | 29% | 45% |

Same assay, conditions: cholesterol-fed Syrian hamsters, oral once a day for 5 days, dose 25 mg/kg

| Compound | Serum lipids reduction rate comparing to Control group (%), Means of 3 animals: Total cholesterol | Serum lipids reduction rate comparing to Control group (%), Means of 3 animals: Triglyceride |
| --- | --- | --- |
| O=C1CCC(C(=O)Nc2ccc(-n3ccnc3)cc2)=NN1 [4-46] | 52% | 45% |
| O=C(Nc1ccc(-n2ccnc2)cc1)c1ccncc1 [4-27] | 40% | 46% |
| O=C(Nc1ccc(-n2ccnc2)cc1)c1cnc2ccccc2c1 [4-66] | 55% | 66% |
| COc1cc2cc(CCC(=O)Nc3ccc(-n4ccnc4)cc3)n(S(C)(=O)=O)c2cc1OC [4-100] | 26% | 33% |
| O=C(Cn1c(=O)ccc2ccccc21)Nc1ccc(-c2ccn[nH]2)cc1 [4-91] | 37% | 48% |
| Cn1cccc1C(=O)Nc1ccc(-n2ccnc2)cc1 [4-39] | 25% | 45% |
| O=C(Nc1ccc(-n2ccnc2)cc1)C1CCOCC1 [4-32] | 58% | 68% |
| COc1cccc2cc(C(=O)Nc3ccc(-n4ccnc4)cc3)oc12 [4-63] | 26% | 29% |
| O=C(Nc1ccc(-n2ccnc2)cc1)C1CCc2ccccc2O1 (racemic) [4-11] | 43% | 47% |
| O=C(Nc1ccc(-n2ccnc2)cc1)c1n[nH]c2ccccc12 [4-34] | 37% | 39% |
| Cc1ccc2ccc(C(=O)Nc3ccc(-n4ccnc4)cc3)cn12 [4-71] | 45% | 62% |
| Cc1c(C(=O)Nc2ccc(-n3ccnc3)cc2)oc2ccccc12 [4-62] | 42% | 59% |
| O=C(CN1C(=O)COc2ccccc21)Nc1ccc(-c2cn[nH]c2)cc1 [4-92] | 29% | 34% |
| O=C(COc1ccc2c(c1)OCO2)Nc1ccc(-n2ccnc2)cc1 [4-80] | 40% | 52% |
| O=C(Nc1ccc(-n2ccnc2)cc1)c1ccc2c(c1)OCO2 [4-21] | 51% | 57% |
| O=C(Nc1ccc(-n2ccnc2)cc1)c1cc2cc(Cl)ccc2[nH]1 [Compound No. 4-8] | 37% | 73% |
| O=C(Nc1ccc(-n2ccnc2)cc1)c1cc2ccccc2o1 [4-31] | 46% | 59% |
| O=C(CSc1cnccn1)Nc1ccc(-n2ccnc2)cc1 [4-87] | 34% | 37% |

| Compound | Serum lipids reduction rate comparing to Control group (%), Means of 3 animals: Total cholesterol | Serum lipids reduction rate comparing to Control group (%), Means of 3 animals: Triglyceride |
| --- | --- | --- |
| O=C(COc1ncccn1)Nc1ccc(-n2ccnc2)cc1 [4-101] | 41% | 38% |
| O=C(CCc1cccnc1)Nc1ccc(-n2ccnc2)cc1 [4-90] | 22% | 36% |
| CC(C)(C)c1cc(C(=O)Nc2ccc(-n3ccnc3)cc2)[nH]n1 [4-16] | 34% | 34% |
| Cc1ccc2[nH]c(C(=O)Nc3ccc(-n4ccnc4)cc3)cc2c1 [4-7] | 27% | 31% |
| O=C(Nc1ccc(-n2ccnc2)cc1)c1ccc2ccc(O)nc2c1 [4-44] | 21% | 31% |
| O=C(Nc1ccc(-n2ccnc2)cc1)c1ccco1 [4-48] | 76% | 85% |
| O=C(Nc1ccc(-n2ccnc2)cc1)c1cc2cc(F)ccc2[nH]1 [4-9] | 44% | 61% |
| O=C(COc1nccc(C(F)(F)F)n1)Nc1ccc(-n2ccnc2)cc1 [4-103] | 35% | 46% |
| Cc1cc(=O)oc2cc(OCC(=O)Nc3ccc(-n4ccnc4)cc3)ccc12 [4-88] | 39% | 53% |
| O=C(Nc1ccc(-n2ccnc2)cc1)c1ccc2ccccc2n1 [4-41] | 50% | 67% |
| O=C(Nc1ccc(-n2ccnc2)cc1)C1COc2ccccc2O1 (stereo not shown) [4-70] | 34% | 48% |
| CC1(C(=O)Nc2ccc(-n3ccnc3)cc2)Cc2ccccc2O1 (racemic) [4-12] | 27% | 41% |
| Cn1ccc(C(=O)Nc2ccc(-n3ccnc3)cc2)c1 [4-3] | 75% | 91% |
| O=C(COc1cccnc1)Nc1ccc(-n2ccnc2)cc1 [Compound No. 4-85] | 39% | 44% |
| O=C(COc1ccc2ncccc2c1)Nc1ccc(-n2ccnc2)cc1 [4-73] | 34% | 50% |
| O=C(CCOC1CCOC1)Nc1ccc(-n2ccnc2)cc1 (stereo not shown) [4-104] | 25% | 38% |
| O=C(Nc1ccc(-n2ccnc2)cc1)c1nccc2ccccc12 [4-22] | 48% | 61% |
| Cc1cc(C(=O)Nc2ccc(-n3ccnc3)cc2)n(C)n1 [4-14] | 66% | 42% |
